Test results: PMC10714400, “Antimicrobial Peptide–Peptoid Hybrids with and without Membrane Disruption” (ACS Infectious Diseases, 2023)
Values after ≈ are worked out from the molar mass of the structure shown. Read-outs that look alike come from different tables or passages of the source. Where a SMILES comes first, the peptide text is derived from it. [ ]: non-standard residue; d: D form. Nleu = CC(C)CNCC(=O)O; Nlys = NCCCCNCC(=O)O

Assays:
[1] = Circular dichroism, α-helical content; type: physicochemical; conditions: 0.1 mg/mL; for CD %α with 5 mM DPC: 10 mM phosphate buffer pH 7.4, 5 mM DPC; for CD %α with 20% TFE: 10 mM phosphate buffer pH 7.4, 20% TFE
PA14 2P4 (pmrB) = test system: PA14 2P4 (pmrB)
Method in brief: (§1)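 MIC read visually after MTT staining: lowest compound concentration preventing visible growth (yellow wells). Inoculum ~5 × 10^5 CFU per well in MH broth; static incubation at 37 °C for ca. 18 h.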

PA14 4.13 (phoQ) = test system: PA14 4.13 (phoQ)
Method in brief: as §1

E. coli W3110 = test system: E. coli W3110
Method in brief: as §1

E. cloacae = conditions: pH 7.4
Method in brief: as §1

P. aeruginosa PAO1 = test system: P. aeruginosa PAO1
Method in brief: as §1

[2] = test system: ZEM-1A (clinical MDR P. aeruginosa isolate)
Method in brief: as §1

S. aureus COL (MRSA) = test system: S. aureus COL (MRSA)
Method in brief: as §1

PA14 4.18 (pmrB) = test system: PA14 4.18 (pmrB)
Method in brief: as §1

A. baumannii ATCC19606 = test system: A. baumannii ATCC19606
Method in brief: (§2)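 MTT added (20–30 min, room temperature); MIC read by eye as lowest concentration inhibiting visible growth (yellow). Polymyxin B positive control from 16 μg/mL.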

K. pneumoniae OXA-48 = test system: K. pneumoniae OXA-48
Method in brief: as §1

[3] = test system: ZEM9A (clinical MDR P. aeruginosa isolate)
Method in brief: as §1

K. pneumoniae NCTC418 = test system: K. pneumoniae NCTC418
Method in brief: as §2

[4] = test system: human red blood cells (hRBC); test: Minimum hemolytic concentration (MHC); type: cell-based
From the text: We also measured minimal hemolysis concentrations (MHC) on human red blood cells by serial 2-fold dilution as an indication of toxicity against eukaryotic cells (Table 1).

B. cenocepacia = conditions: pH 7.4
Method in brief: as §1

S. epidermis = conditions: pH 7.4
Method in brief: as §1

S. maltophilia = conditions: pH 7.4
Method in brief: as §1

P. aeruginosa PA14 = test system: P. aeruginosa PA14
Method in brief: as §1

S. aureus Newman = conditions: Newman
Method in brief: as §1

## CC(C)C[C@H](NC(=O)[C@H](CCCCN)NC(=O)CNCCCCN)C(=O)N[C@@H](CC(C)C)C(=O)N[C@@H](CCCCN)C(=O)N[C@@H](CC(C)C)C(=O)N[C@@H](CC(C)C)C(=O)N[C@@H](CCCCN)C(=O)N[C@@H](CC(C)C)C(=O)N[C@@H](CC(C)C)C(=O)N(CC(N)=O)CC(C)C [EB1] (H-[Nlys]KLLKLLKLL[Nleu]-NH2; N-terminus assumed)
[1]; DichroWeb, Contin-LL
  CD %α with 5 mM DPC: 30%
  CD %α with 20% TFE: 26%
[1]; Table S2
  CD %α with 5 mM DPC: 30%
  CD %α with 20% TFE: 26%
PA14 2P4 (pmrB); CSV, […] MH at pH 8.5
  MIC P. aeruginosa PA14 2P4, […] MH at pH 8.5: 2 ug/mL
PA14 2P4 (pmrB); CSV, full MH at pH 7.4
  MIC P. aeruginosa PA14 2P4, full MH at pH 7.4: 32 ug/mL
PA14 2P4 (pmrB); MH pH 7.4, 16–20 h at 37 °C
  MIC PA14 2P4 (pmrB): 32 µg/mL (≈ 24.2 µM)
PA14 2P4 (pmrB); Table S3, […] MH at pH 8.5
  MIC P. aeruginosa PA14 2P4: 2 µg/mL (≈ 1.51 µM)
PA14 4.13 (phoQ); CSV, […] MH at pH 8.5
  MIC P. aeruginosa PA14 4.13, […] MH at pH 8.5: 2 ug/mL
PA14 4.13 (phoQ); CSV, full MH at pH 7.4
  MIC P. aeruginosa PA14 4.13, full MH at pH 7.4: 8 ug/mL
PA14 4.13 (phoQ); MH pH 7.4, 16–20 h at 37 °C
  MIC PA14 4.13 (phoQ): 8 µg/mL (≈ 6.05 µM)
PA14 4.13 (phoQ); Table S3, […] MH at pH 8.5
  MIC P. aeruginosa PA14 4.13: 2 µg/mL (≈ 1.51 µM)
E. coli W3110; CSV, […] MH at pH 7.4
  MIC E. coli W3110, […] MH at pH 7.4: 2 ug/mL
E. coli W3110; CSV, full MH at pH 7.4
  MIC E. coli W3110, full MH at pH 7.4: 2 ug/mL
E. coli W3110; Table S2, […] MH, pH 7.4
  MIC E. coli W3110 […] 7.4: 2 µg/mL (≈ 1.51 µM)
E. coli W3110; Table S2, […] MH, pH 8.5
  MIC E. coli W3110 […] 8.5: 1 µg/mL (≈ 0.757 µM)
E. coli W3110; Table S2, full MH, pH 7.4
  MIC E. coli W3110 Full MH 7.4: 2 µg/mL (≈ 1.51 µM)
E. coli W3110; Table S2, full MH, pH 8.5
  MIC E. coli W3110 Full MH 8.5: 32 µg/mL (≈ 24.2 µM)
E. coli W3110; diluted MH ([…] MH, pH 8.5) per Table 1 footnote b, 16–20 h at 37 °C
  MIC E. coli W3110 […]: 2 µg/mL (≈ 1.51 µM)
E. cloacae; 4 h
  MIC E. cloacae, full MH at pH 7.4: 8 ug/mL
E. cloacae
  MIC E. cloacae: 8 µg/mL (≈ 6.05 µM)
P. aeruginosa PAO1; PAO1, 4 h, pH 7.4
  MIC P. aeruginosa PAO1, full MH at pH 7.4: 4 ug/mL
P. aeruginosa PAO1; Table S2, […] MH, pH 7.4
  MIC P. aeruginosa PAO1 […] 7.4: 2 µg/mL (≈ 1.51 µM)
P. aeruginosa PAO1; Table S2, […] MH, pH 8.5
  MIC P. aeruginosa PAO1 […] 8.5: 2 µg/mL (≈ 1.51 µM)
P. aeruginosa PAO1; Table S2, full MH, pH 7.4
  MIC P. aeruginosa PAO1 Full MH 7.4: 4 µg/mL (≈ 3.03 µM)
P. aeruginosa PAO1; Table S2, full MH, pH 8.5
  MIC P. aeruginosa PAO1 Full MH 8.5: 16 µg/mL (≈ 12.1 µM)
[2]; CSV, full MH at pH 7.4
  MIC P. aeruginosa ZEM-1A, full MH at pH 7.4: 3 ug/mL
[2]; MH pH 7.4, 16–20 h at 37 °C
  MIC ZEM-1A: 2 to 4 µg/mL
S. aureus COL (MRSA); COL, pH 7.4
  MIC S. aureus COL (MRSA) Full: 8 µg/mL (≈ 6.05 µM)
S. aureus COL (MRSA); Table S2, […] MH, pH 7.4
  MIC S. aureus COL (MRSA) […] 7.4: 2 µg/mL (≈ 1.51 µM)
S. aureus COL (MRSA); Table S2, […] MH, pH 8.5
  MIC S. aureus COL (MRSA) […] 8.5: 2 µg/mL (≈ 1.51 µM)
S. aureus COL (MRSA); Table S2, full MH, pH 7.4
  MIC S. aureus COL (MRSA) Full MH 7.4: 8/32
S. aureus COL (MRSA); Table S2, full MH, pH 8.5
  MIC S. aureus COL (MRSA) Full MH 8.5: 32 µg/mL (≈ 24.2 µM)
PA14 4.18 (pmrB); CSV, […] MH at pH 8.5
  MIC P. aeruginosa PA14 4.18, […] MH at pH 8.5: 2 ug/mL
PA14 4.18 (pmrB); CSV, full MH at pH 7.4
  MIC P. aeruginosa PA14 4.18, full MH at pH 7.4: 32 ug/mL
PA14 4.18 (pmrB); MH pH 7.4, 16–20 h at 37 °C
  MIC PA14 4.18 (pmrB): 32 µg/mL (≈ 24.2 µM)
PA14 4.18 (pmrB); Table S3, […] MH at pH 8.5
  MIC P. aeruginosa PA14 4.18: 2 µg/mL (≈ 1.51 µM)
A. baumannii ATCC19606; ATCC19606, 4 h, pH 7.4
  MIC A. baumannii ATCC19606, full MH at pH 7.4: 2 ug/mL
A. baumannii ATCC19606; Table S2, […] MH, pH 7.4
  MIC A. baumannii ATCC19606 […] 7.4: 2 µg/mL (≈ 1.51 µM)
A. baumannii ATCC19606; Table S2, full MH, pH 7.4
  MIC A. baumannii ATCC19606 Full MH 7.4: 2 µg/mL (≈ 1.51 µM)
A. baumannii ATCC19606; Table S2, full MH, pH 8.5
  MIC A. baumannii ATCC19606 Full MH 8.5: > 32 µg/mL
K. pneumoniae OXA-48; CSV, full MH at pH 7.4
  MIC K. pneumoniae OXA-48, full MH at pH 7.4: 12 ug/mL
K. pneumoniae OXA-48; MH pH 7.4, 16–20 h at 37 °C
  MIC K. pneumoniae OXA-48: 8 to 16 µg/mL
[3]; CSV, full MH at pH 7.4
  MIC P. aeruginosa ZEM9A, full MH at pH 7.4: 16 ug/mL
[3]; MH pH 7.4, 16–20 h at 37 °C
  MIC ZEM9A: 16 µg/mL (≈ 12.1 µM)
K. pneumoniae NCTC418; NCTC418, 4 h, pH 7.4
  MIC K. pneumoniae NCTC418, full MH at pH 7.4: 8 ug/mL
K. pneumoniae NCTC418; Table S2, […] MH, pH 7.4
  MIC K. pneumoniae NCTC418 […] 7.4: 2 µg/mL (≈ 1.51 µM)
K. pneumoniae NCTC418; Table S2, full MH, pH 7.4
  MIC K. pneumoniae NCTC418 Full MH 7.4: 8 µg/mL (≈ 6.05 µM)
K. pneumoniae NCTC418; Table S2, full MH, pH 8.5
  MIC K. pneumoniae NCTC418 Full MH 8.5: > 32 µg/mL
[4]
  MHC: 1000 µg/mL
[4]; red cells of human
  MHC (hemolysis): 250 to 1000 µg/mL
B. cenocepacia; 4 h
  MIC B. cenocepacia, full MH at pH 7.4: >32 ug/mL
B. cenocepacia
  MIC B. cenocepacia: >32 µg/mL
S. epidermis; 4 h
  MIC S. epidermis, full MH at pH 7.4: 6 ug/mL
S. epidermis
  MIC S. epidermis: 4 to 8 µg/mL
S. maltophilia; 4 h
  MIC S. maltophilia, full MH at pH 7.4: 3 ug/mL
S. maltophilia
  MIC S. maltophilia: 2 to 4 µg/mL
P. aeruginosa PA14; PA14, 4 h, pH 7.4
  MIC P. aeruginosa PA14, full MH at pH 7.4: 4 ug/mL
P. aeruginosa PA14; PA14, pH 7.4
  MIC P. aeruginosa PA14: 4 µg/mL (≈ 3.03 µM)
P. aeruginosa PA14; PA14, pH 8.5
  MIC P. aeruginosa PA14: 2 µg/mL (≈ 1.51 µM)
S. aureus Newman; 4 h, pH 7.4
  MIC S. aureus Newman, full MH at pH 7.4: 32 ug/mL
S. aureus Newman; 4 h, pH 8.5
  MIC S. aureus Newman: 2 µg/mL (≈ 1.51 µM)
S. aureus Newman; pH 7.4
  MIC S. aureus Newman: 32 µg/mL (≈ 24.2 µM)
